From ChEMBL document CHEMBL1201862, “PubChem BioAssay data set” (2004)
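Values below derive from 48-hour exposures of cells grown in 96-well plates, with endpoints linearly interpolated between the two concentrations bracketing the appropriate inhibition level. Here, GI50 denotes the concentration required for 50% inhibition of growth.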 Active and inactive are the calls of the source. Rule as the data show it: active = GI50 up to about 1.1 µM and inactive = higher.

How the values were obtained:
Assay in all cases: DTP human tumour cell line panel, 48 h
[1] = tested on: NCI-H23
[2] = tested on: SW-620
[3] = tested on: UACC-62
[4] = tested on: CCRF-CEM
[5] = tested on: U-251
[6] = tested on: A498
[7] = tested on: CAKI-1
[8] = tested on: RPMI-8226
[9] = tested on: UACC-257
[10] = tested on: Malme-3M
[11] = tested on: COLO 205
[12] = tested on: MOLT-4
[13] = tested on: SK-OV-3
[14] = tested on: LOX IMVI
[15] = tested on: SK-MEL-28
[16] = tested on: HT-29
[17] = tested on: A549
[18] = tested on: SNB-75
[19] = tested on: HCC 2998
[20] = tested on: NCI-H226

| Structure (SMILES) | GI50 [1] | GI50 [2] | GI50 [3] | GI50 [4] | GI50 [5] | GI50 [6] | GI50 [7] | GI50 [8] | GI50 [9] | GI50 [10] | GI50 [11] | GI50 [12] | GI50 [13] | GI50 [14] | GI50 [15] | GI50 [16] | GI50 [17] | GI50 [18] | GI50 [19] | GI50 [20] |
| --- | --- | --- | --- | --- | --- | --- | --- | --- | --- | --- | --- | --- | --- | --- | --- | --- | --- | --- | --- | --- |
| C=C(Br)CN(C)CC(=C)Br | > 100 µM (inactive) | > 100 µM (inactive) | > 100 µM (inactive) | > 100 µM (inactive) | > 100 µM (inactive) | > 100 µM (inactive) | > 100 µM (inactive) | > 100 µM (inactive) | > 100 µM (inactive) | > 100 µM (inactive) | > 100 µM (inactive) | > 100 µM (inactive) | > 100 µM (inactive) | > 100 µM (inactive) | > 100 µM (inactive) | > 100 µM (inactive) | > 100 µM (inactive) | > 100 µM (inactive) |  |  |
| COc1ccc(C(c2ccc(C(C)C)cc(=O)c2O)c2c(O)cc3oc(-c4ccccc4)cc(=O)c3c2O)cc1 (centres undefined) | 4.79 µM (inactive) | 14.5 µM (inactive) | 6.65 µM (inactive) | 4.04 µM (inactive) | 6.43 µM (inactive) | 18.6 µM (inactive) | 9.04 µM (inactive) | 6.21 µM (inactive) | 27.4 µM (inactive) |  | 9.79 µM (inactive) | 5.73 µM (inactive) | 12.5 µM (inactive) | 14.6 µM (inactive) | 17.1 µM (inactive) | 17.7 µM (inactive) | 3.35 µM (inactive) | 4.51 µM (inactive) | 3.58 µM (inactive) |  |
| O=C(Nc1nc2c(=O)[nH]cnc2s1)c1ccccc1 | > 100 µM (inactive) | > 100 µM (inactive) | > 100 µM (inactive) | > 100 µM (inactive) | > 100 µM (inactive) | 83.4 µM (inactive) | 43.6 µM (inactive) |  | > 100 µM (inactive) | > 100 µM (inactive) | > 100 µM (inactive) |  | > 100 µM (inactive) | 64 µM (inactive) | > 100 µM (inactive) | 50.4 µM (inactive) | 81.7 µM (inactive) | 44.2 µM (inactive) | > 100 µM (inactive) | > 100 µM (inactive) |
| N#Cc1ccccc1C(Cl)(Cl)c1cnccn1 | 38.5 µM (inactive) | 99.3 µM (inactive) | 30.5 µM (inactive) | 20 µM (inactive) | 34.8 µM (inactive) | 92.7 µM (inactive) | > 100 µM (inactive) |  | 88.1 µM (inactive) |  | 46.9 µM (inactive) | 22.6 µM (inactive) | 61.1 µM (inactive) | 24.2 µM (inactive) | 51.2 µM (inactive) | 57.4 µM (inactive) | 83.9 µM (inactive) |  | 32.4 µM (inactive) | 36.6 µM (inactive) |
| CC12CCC3C(CCC4=CC(O)CCC43C=O)C1(O)CCC2c1ccc(=O)oc1 (centres undefined) | 0.00226 µM (active) | 0.05 µM (active) | 0.05 µM (active) |  | 0.00556 µM (active) | 0.00802 µM (active) |  | 0.05 µM (active) | 0.0139 µM (active) |  | 0.0169 µM (active) |  | 0.0113 µM (active) | 0.00748 µM (active) | 0.05 µM (active) | 0.00929 µM (active) |  | 0.011 µM (active) | 0.021 µM (active) | 0.0303 µM (active) |
| O=C(NS(=O)(=O)OCC(Cl)(Cl)Cl)SCCC(F)(F)C(F)(F)C(F)(F)C(F)(F)C(F)(F)C(F)(F)F | 20.1 µM (inactive) | 20.2 µM (inactive) | 18.8 µM (inactive) | 22.8 µM (inactive) | 23.6 µM (inactive) | 31 µM (inactive) | 30.5 µM (inactive) | 18.5 µM (inactive) | 35.5 µM (inactive) | 17.9 µM (inactive) | 17.9 µM (inactive) | 29 µM (inactive) | 17.7 µM (inactive) | 22.5 µM (inactive) | 22.7 µM (inactive) | 18.8 µM (inactive) | 30.2 µM (inactive) | 23.1 µM (inactive) |  | 25.9 µM (inactive) |
| COc1cccc(CCn2c(N)c(C#N)c3ccc([N+](=O)[O-])cc3c2=O)c1 | > 46.5 µM (inactive) | > 100 µM (inactive) | > 31.6 µM (inactive) | 4.35 µM (inactive) | > 100 µM (inactive) | > 100 µM (inactive) | > 46.5 µM (inactive) |  | > 31.6 µM (inactive) |  | > 100 µM (inactive) | > 31.6 µM (inactive) | > 31.6 µM (inactive) | > 46.5 µM (inactive) | > 100 µM (inactive) | > 31.6 µM (inactive) | > 46.5 µM (inactive) | > 46.5 µM (inactive) | > 46.5 µM (inactive) | > 31.6 µM (inactive) |
| CC1=N/C(=C/c2ccc3c(c2)OCO3)C(=O)O1 | > 100 µM (inactive) | > 100 µM (inactive) | > 100 µM (inactive) | > 100 µM (inactive) | > 100 µM (inactive) | > 100 µM (inactive) | > 100 µM (inactive) | > 100 µM (inactive) | > 100 µM (inactive) | > 100 µM (inactive) | > 100 µM (inactive) | > 100 µM (inactive) | > 100 µM (inactive) | > 100 µM (inactive) | > 100 µM (inactive) | > 100 µM (inactive) | > 100 µM (inactive) | > 100 µM (inactive) |  |  |
| COC(=O)C#CC(N)=O | > 100 µM (inactive) | 23.8 µM (inactive) | > 64.7 µM (inactive) | 13.9 µM (inactive) | > 100 µM (inactive) | > 100 µM (inactive) | 28.1 µM (inactive) |  | 27.7 µM (inactive) | 13.4 µM (inactive) | > 100 µM (inactive) | 22.3 µM (inactive) | > 100 µM (inactive) | > 35.8 µM (inactive) | 17.9 µM (inactive) | > 100 µM (inactive) | > 100 µM (inactive) | 35.1 µM (inactive) | > 100 µM (inactive) | > 100 µM (inactive) |
| O=C(Nc1nc2ncn(CCO)c2c(=O)[nH]1)c1ccccc1 |  | > 100 µM (inactive) | > 100 µM (inactive) | > 100 µM (inactive) | > 100 µM (inactive) | > 100 µM (inactive) | > 100 µM (inactive) | > 100 µM (inactive) | > 100 µM (inactive) | > 100 µM (inactive) | > 100 µM (inactive) |  | > 100 µM (inactive) | > 100 µM (inactive) | > 100 µM (inactive) | > 100 µM (inactive) | > 100 µM (inactive) | > 100 µM (inactive) |  | > 100 µM (inactive) |
| CCC1C(=O)C[C@H]2[C@@H]3C(O)CC4=CC(=O)CC[C@]4(C)[C@H]3CC[C@]12C (some centres undefined) | > 50 µM (inactive) | > 50 µM (inactive) | > 50 µM (inactive) | > 50 µM (inactive) | > 50 µM (inactive) | > 50 µM (inactive) | > 50 µM (inactive) | > 50 µM (inactive) | > 50 µM (inactive) | 25.8 µM (inactive) | > 50 µM (inactive) | > 50 µM (inactive) | > 50 µM (inactive) | > 50 µM (inactive) | > 50 µM (inactive) | > 50 µM (inactive) | > 50 µM (inactive) | > 50 µM (inactive) | > 50 µM (inactive) |  |
| COc1ccc2nc3c(C(=O)NCCN(C)C)cccc3cc2c1 | 2.09 µM (inactive) | 1.42 µM (inactive) | 1.46 µM (inactive) | 1.78 µM (inactive) | 3.48 µM (inactive) | 1.36 µM (inactive) | 0.103 µM (active) | 2.16 µM (inactive) | 2.11 µM (inactive) |  | 0.893 µM (active) | 0.569 µM (active) | 2.21 µM (inactive) | 1.63 µM (inactive) | 2.98 µM (inactive) | 1.29 µM (inactive) | 1.49 µM (inactive) | 2.17 µM (inactive) | 3.79 µM (inactive) | 1.44 µM (inactive) |
| CCOC(=O)N/N=C(/N)Cc1ccccc1 |  | > 100 µM (inactive) | > 100 µM (inactive) | > 100 µM (inactive) | > 10 µM (inactive) | > 100 µM (inactive) | > 100 µM (inactive) |  | > 100 µM (inactive) | > 100 µM (inactive) | > 100 µM (inactive) | > 100 µM (inactive) | > 100 µM (inactive) | > 100 µM (inactive) | > 100 µM (inactive) |  | > 100 µM (inactive) | > 100 µM (inactive) | > 100 µM (inactive) |  |
| C=C(C)COc1ccc2c(c1)CCC1C2CCC2(C)C(=O)/C(=N/O)CC12 (centres undefined) | 3.21 µM (inactive) | 1.99 µM (inactive) | 14.9 µM (inactive) | 1.94 µM (inactive) | 4.09 µM (inactive) | 11.1 µM (inactive) | 1.21 µM (inactive) | 2.39 µM (inactive) | 11.3 µM (inactive) | 13.8 µM (inactive) | 3.21 µM (inactive) | 1.76 µM (inactive) | 8.55 µM (inactive) | 3.08 µM (inactive) | 17.2 µM (inactive) | 1.31 µM (inactive) | 9.62 µM (inactive) | 1.9 µM (inactive) |  | 9.31 µM (inactive) |
| CC(C)(O)/C=C/C(=O)[C@](C)(O)[C@H]1[C@H](O)C[C@@]2(C)[C@@H]3CC=C4[C@@H](C[C@H](O)C(=O)C4(C)C)[C@]3(C)C(=O)C[C@]12C [CUCURBITACIN D] | 1.07 µM (active) | 0.0914 µM (active) | 0.0438 µM (active) | 0.0687 µM (active) | 0.0923 µM (active) | 0.0506 µM (active) | 0.116 µM (active) | 0.0228 µM (active) | 0.0968 µM (active) | 0.0679 µM (active) | 0.181 µM (active) | 0.953 µM (active) | 0.281 µM (active) | 0.0562 µM (active) | 0.0653 µM (active) | 0.112 µM (active) | 0.177 µM (active) | 0.59 µM (active) |  | 0.277 µM (active) |
